Consider 1 substance from US7575882B2, “Compositions and methods for identifying modulators of TRPV2” (Janssen Pharmaceutica N. V., priority 2005, dated 2009).

The target in assay [1] is T1, rat and human TRPV2 chimera RRH (Rattus norvegicus, UniProt Q9WUD2, A714S/D654T/DEL680-680/E685A/G695P/H651S/H683Q/K690T/K717Q/L688M/N655D/R687V/R694K/S723C/T698S).
T1 construct: expressed in transfected cells; host or cells: HEK293, transient, pCI-neo
T1 sequence (Q9WUD2 with tags, fused parts or gaps H651S/D654T/N655D/DEL680-680/H683Q/E685A/R687V/L688M/K690T/R694K/G695P/T698S/A714S/K717Q/S723C): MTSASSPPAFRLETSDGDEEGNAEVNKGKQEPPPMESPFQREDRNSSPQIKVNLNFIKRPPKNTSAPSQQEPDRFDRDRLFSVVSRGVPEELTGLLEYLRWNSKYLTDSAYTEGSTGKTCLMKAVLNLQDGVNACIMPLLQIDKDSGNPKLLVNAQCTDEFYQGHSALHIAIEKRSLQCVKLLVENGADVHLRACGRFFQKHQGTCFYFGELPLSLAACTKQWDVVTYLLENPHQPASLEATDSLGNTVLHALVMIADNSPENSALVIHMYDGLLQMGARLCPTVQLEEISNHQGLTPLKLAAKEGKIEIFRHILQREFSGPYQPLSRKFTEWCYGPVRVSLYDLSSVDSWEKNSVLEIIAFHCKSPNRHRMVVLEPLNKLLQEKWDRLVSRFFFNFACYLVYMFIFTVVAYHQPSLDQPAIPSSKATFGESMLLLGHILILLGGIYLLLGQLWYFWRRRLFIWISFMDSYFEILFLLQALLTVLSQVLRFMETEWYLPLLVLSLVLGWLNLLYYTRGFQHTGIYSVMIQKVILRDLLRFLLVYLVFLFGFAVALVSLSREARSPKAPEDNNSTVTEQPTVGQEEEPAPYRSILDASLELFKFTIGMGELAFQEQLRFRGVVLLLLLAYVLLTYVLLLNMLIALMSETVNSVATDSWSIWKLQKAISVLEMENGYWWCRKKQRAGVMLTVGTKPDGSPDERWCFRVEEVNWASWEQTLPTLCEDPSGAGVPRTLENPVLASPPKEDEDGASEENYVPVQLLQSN
The assay can be described thus: Calcium mobilization in HEK293 cells expressing TRPV2 chimera RRH. The assay is classed as cell-based. The following applies: expressed separately in HEK cells. As to the method: (§1) The deletion mutant constructs were then transfected into HEK293 cells using Fugene 6 reagent (Roche) as per the manufacturer's instructions. At 24 hours post-transfection, the cells were harvested and replated in fresh DMEM medium supplemented with 10% fetal bovine serum, 100 units/ml penicillin, and 100 μg/ml streptomycin. The cells were distributed onto poly-D-Lysine coated 96-or 384-well plates at a density of approximately 40,000 and 10,000 cells per well, respectively. At approximately 48 hours post-transfection, the medium was removed from the assay plate and replaced with Calcium 3 Dye Buffer (Molecular Devices) using the protocol available from the manufacturer. Calcium mobilization was triggered using Δ^9-THC or 2-APB or elevated temperature buffer and measured using either FLIPR or FLEX STATION instruments.
(§2) Based on the predicted topology and primary sequence features of TRPV2, TRPV2 are divided into 3 major domains: 1) the amino-terminal intracellular domain; 2) the transmembrane domain; and 3) the carboxyl-terminal intracellular domain. For a chimera, each domain can be of rat (R) or human (H) origin. Three rat and human TRPV2 chimera were constructed and tested herein. RRH (SEQ ID NO:15) was a chimera comprising rat 1-392 aa, rat 393-646 aa, and human 647-764 aa. RHR (SEQ ID NO:16) was a chimera comprising rat 1-392, human 391-646, and rat 647-761. […]
In general terms: A change in cytosolic calcium serves as a functional read-out for many receptors and channels.

Assay [2] deals with T2, co-expressed TRPV2 chimeras RRH and HRR (Rattus norvegicus, UniProt Q9WUD2).
T2 construct: expressed in transfected cells; host or cells: HEK293, transient co-expression, pCI-neo
T2 sequence (Q9WUD2 with tags, fused parts or gaps H651S/D654T/N655D/DEL680-680/H683Q/E685A/R687V/L688M/K690T/R694K/G695P/T698S/A714S/K717Q/S723C): T1 sequence (Q9WUD2 with tags, fused parts or gaps H651S/D654T/N655D/DEL680-680/H683Q/E685A/R687V/L688M/K690T/R694K/G695P/T698S/A714S/K717Q/S723C)
T2 sequence (Q9WUD2 with tags, fused parts or gaps P38Q/R41G/N45K/S46F/S47A/K51R/DEL56-59/P60Y/P61R/N63G/S65G/DEL67-67/Q70P/E71D/D73N/S82N/V83A/E91D/T93A/L96P/R100S/W101K/N102T/A110E/Q129K/M137L/K144R/K150Q/L151P/E160D/F161Y/Q163R/D189N/L192A/H202G/T227S/E240Q/L245Q/A257S/P261A/S264I/I268T/H269S/M277A/E289D/S291R/H293L/G295D/DEL322-322/Y323L/Q324S/P325H/S346A/W351C/K353E/N368H/E384A/R388L/V390I/S391P/R392K): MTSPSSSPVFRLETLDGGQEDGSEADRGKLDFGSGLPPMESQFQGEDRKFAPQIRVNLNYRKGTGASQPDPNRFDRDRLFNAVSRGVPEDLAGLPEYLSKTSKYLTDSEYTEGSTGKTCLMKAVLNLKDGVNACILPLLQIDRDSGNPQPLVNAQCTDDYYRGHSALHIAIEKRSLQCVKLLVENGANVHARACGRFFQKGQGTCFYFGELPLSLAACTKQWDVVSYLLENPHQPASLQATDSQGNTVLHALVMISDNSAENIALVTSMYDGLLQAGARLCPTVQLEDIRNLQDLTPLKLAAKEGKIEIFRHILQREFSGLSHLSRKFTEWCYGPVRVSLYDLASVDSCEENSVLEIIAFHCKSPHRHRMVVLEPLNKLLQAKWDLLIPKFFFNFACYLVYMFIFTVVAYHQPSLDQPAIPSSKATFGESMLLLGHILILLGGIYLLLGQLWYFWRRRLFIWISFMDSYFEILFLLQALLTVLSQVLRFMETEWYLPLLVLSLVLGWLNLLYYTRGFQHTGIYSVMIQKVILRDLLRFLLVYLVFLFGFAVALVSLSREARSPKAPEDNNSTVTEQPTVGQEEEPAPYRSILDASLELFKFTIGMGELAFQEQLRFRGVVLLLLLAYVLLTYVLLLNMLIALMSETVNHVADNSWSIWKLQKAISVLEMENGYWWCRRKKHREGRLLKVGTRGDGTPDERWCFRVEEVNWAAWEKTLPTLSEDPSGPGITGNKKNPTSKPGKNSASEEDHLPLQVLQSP
The assay can be described thus: Calcium mobilization in HEK293 cells co-expressing TRPV2 chimeras RRH and HRR. The assay is classed as cell-based, rat/human. The following applies: co-expression in HEK cells. As to the method: as §1, §2

For the substance Delta-9-tetrahydrocannabinol [Δ^9-THC], the “response of chimera RRH to the compound” value in assay [1] is listed as “poorly”. The “response of cells co-expressing both chimeras to the compound” value in assay [2] is recorded as “fully responsive”.
